Measurements: US20240408064A1, “RAS INHIBITORS, COMPOSITIONS AND METHODS OF USE THEREOF” (GENETOLEAD INC., priority 2021, published 2024)
Like-named read-outs stand apart in the source and are kept apart here.

What was measured:
[1] = biological target: T1, HRas^G12V (Homo sapiens (Human), UniProt P01112, G12V); assay: 19F DLB (ligand-observed 19F NMR) score; format: binding; set-up: scale not given here
Procedure, shortened: (§1)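 In the T2-CPMG experiment, echo spacing was 1 ms and total delays ranged over eight values from 1 to 800 ms. Both scores come from 600 MHz NMR of 50 μM HRas G12V mixed with fragment pools at 240 μM each, in phosphate buffer pH 7.4 with NaCl, MgCl2 and TCEP-d16. Ligand-observed 19F spectra were recorded with 1H decoupling, 64 scans and a 5 s relaxation delay.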

[2] = biological target: T1, HRas^G12V; assay: 19F T2-CPMG NMR score; format: binding
Procedure, shortened: as §1

[3] = biological target: T1, HRas^G12V; assay: Dissociation constant by NMR (1H/15N Fast-HSQC, 1H 1D protein-observed); format: binding
Procedure: All NMR experiments were collected using 3 mm NMR tubes on a 600 MHz Bruker Avance III spectrometer equipped with a QCI helium cryoprobe and a SampleJet sample changer. The buffer used for NMR experiments was 25 mM sodium phosphate pH 7.4, 150 mM NaCl, 5 mM MgCl2, 1 mM TCEP-d16, 10% D2O. Data were processed using Bruker TopSpin.
^1H/^15N Fast-HSQC experiments (Mori et al., Journal of Magnetic Resonance, Series B, Volume 108, Issue 1, July 1995, Pages 94-98) were recorded at a protein concentration of 50-100 μM.
Dissociation constants were obtained by monitoring changes in chemical shifts as a function of ligand concentration. The changes in chemical shifts (d) were calculated according to the following equation (Williamson, Progress in Nuclear Magnetic Resonance Spectroscopy, Volume 73, August 2013, Pages 1-16): d=√(1/2[δ_H^2+[…]]), Where δ are the changes in chemical shift in ppm for ^1H and ^15N and the correction factor (α) was set at 0.15.
^1H 1D protein-observed experiments were recorded with 15-50 μM protein. The standard Bruker 1D ^1H sequence with excitation sculpting (zgesgp) was employed. A relaxation delay of 1 s was employed in order to use 256 scans while still keeping experimental time fairly short. Changes in protein chemical shift or peak intensity in the methyl region were monitored against compound concentration.

[4] = biological target: T1, HRas^G12V; assay: Overall binding/activity in the various assays (NMR consensus binding)
Procedure, shortened: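 Fragments (240 µM each, pooled) screened against 50 µM HRas^G12V in 25 mM sodium phosphate pH 7.4, 150 mM NaCl, 5 mM MgCl2, 1 mM TCEP-d16 by 1H-decoupled 1D 19F NMR. Hits confirmed by ligand- and protein-observed 1D 1H, STD and T2-CPMG (aggregation check); consensus binding ranked, with 15N HSQC for sites and Kd.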

[5] = biological target: T2, KRAS^G12D-GDP (Homo sapiens (Human), UniProt P01116, G12D); assay: 19F DLB score, KRAS^G12D-GDP; format: binding; set-up: scale not given here
Procedure: (§2) Since the fragment library was curated using phosphate buffer, 25 mM sodium phosphate pH 7.4, 150 mM NaCl, 5 mM MgCl2, 1 mM TCEP-d16, 10% D2O Fresh TCEP was used for experiments. Screening was performed using ^1H-decoupled 1D ^19F experiment Bruker experiment (zgfhigqn.2) with 64 scans and a relaxation delay of 5 seconds. 50 μM HRas^G12V and 240 μM of each fragment in pools (mixtures) were used.
(§3) Hit confirmation was performed using the same ^19F experiment as the screen. Ligand-observed 1D ^1H, protein-observed 1D ^1H, ^1H T2-CPMG as well as Saturation Transfer Difference (STD) experiments were also run on the same samples. Ligand-observed 1D ^1H was run using the standard Bruker sequence with excitation sculpting (zgesgp) with a relaxation delay of 10 seconds and 16 scans per spectrum. Protein-observed 1D ^1H was performed using the same sequence with a relaxation delay of 1 second and 256 scans in order to increase the signal-to-noise of the protein resonances, while keeping the experimental time relatively short. The ^1H T2-CPMG experiment employed a modified version of the Bruker 1D ^1H zgesgp experiment with the addition of a CPMG pulse train after the first 90° excitation pulse. Total duration for each spin echo was fixed at 1 ms (τ=500 μs), while the number of echoes in the pulse train was varied according to the total time (T). The number of scans for each spectrum was 4 and eight delay times were run on each sample, ranging from 1 ms to 800 ms.
(§4) The activity of compounds of the invention regarding KRAS^G12D-GDP was measured in the same as in Example 80. The results obtained with the compounds in the various assays described above are depicted in Table 23.

[6] = biological target: T2, KRAS^G12D-GDP; assay: 19F T2-CPMG score, KRAS^G12D-GDP; format: binding
Procedure: as §2, §3, §4

[7] = Solubility and free-state aggregation in the NMR screen; format: physicochemical; details: NMR buffer
From the text: Fragment screening has been performed using a library containing 461 fragments that has been designed using cheminformatics parameters such as Rule of Three and PAINS analysis. All fragments have been curated by ^1H and ^19F NMR for structure verification, purity, solubility in phosphate buffer and lack of apparent aggregation under these conditions. Fragments were pooled according to chemical compatibility resulting in 31 different pools to increase screening throughput. The library was provided by NMX Research in Solutions Inc.
Because of its power to probe the intrinsically weak interactions (Kd) between targets and low-molecular weight fragments, NMR fragment-based lead discovery (FBLD) is a very useful biophysical method in early stage drug discovery, especially for challenging target proteins; including those with shallow binding pockets. Since FBLD screens are performed using low-molecular weight compounds (fragments) with lower structural complexity, the same chemical space can be covered using a smaller number of drug-like fragments versus use of large libraries of higher-molecular weight lead-like compounds as in high throughput screening (HTS) campaigns. Therefore, FBLD has a much higher hit rate than HTS using only several hundred to several thousand compounds in comparison with approximately 1 million compounds for HTS. Also, the small size of the compounds screened in FBLD means a better chance to fully match the interactions with small or transient pockets within the target protein, where these less tractable pockets cannot be accessed with standard classical HTS methods. […] We expect this methodology to be more advantageous than classical HTS methods for expediting the time from hit to lead (H2L) and allows for rapid access to high quality leads with lower attrition rates in subsequent lead optimization (LO) campaigns toward pre-clinical candidate selection. FBLD screening by NMR involves a “consensus binding” approach where several distinct NMR experiments (DLB, STD, CPMG) are applied along with a free-state aggregation detection method (T2-CPMG) to rank the compounds for their affinity to the receptor (HRAS in this case) whilst simultaneously monitoring the solution behavior and critical quality attributes of each compound. The latter helps to eliminate artifact binders which are highly problematic. We performed a fluorine screen involving 461 compounds that were derived from a highly curated fragment library. Moreover, two-dimensional ^15N HSQC NMR was also used to validate ligand-binding sites on the target protein. In addition, we employed protein-detected biophysical measurements were employed to determine fragment binding affinities to the target protein (Kd) by HSQC NMR. From the results, we picked the most interesting hit were picked, FS-1255 that was identified based on consensus binding evidence from all NMR detection methods, and based the lack of free-state aggregation by T2-CPMG. We chose to prioritize on FS-1255 which was the most promising fragment hit.

T2 sequence (P01116-2 other isoform, or with tags, fused parts or gaps G12D): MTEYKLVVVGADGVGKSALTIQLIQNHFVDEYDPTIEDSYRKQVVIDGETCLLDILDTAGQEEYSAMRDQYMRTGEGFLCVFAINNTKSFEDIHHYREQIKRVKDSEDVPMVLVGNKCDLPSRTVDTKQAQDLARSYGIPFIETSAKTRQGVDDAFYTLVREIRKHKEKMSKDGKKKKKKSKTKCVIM

| SMILES | 19F DLB Score [1] | 19F T2-CPMG Score [2] | Kd ([3]; HRas^G12V, read-out: NMR Kd) | Activity ranking on HRas^G12V (in words) [4] | 19F DLB Score [5] | 19F T2-CPMG Score [6] | Binding to HRas^G12V (in words) [4] | Solution behaviour in the NMR screen [7] | 19F DLB Score ([1]; @ 50 uM) | Kd [3] |
| --- | --- | --- | --- | --- | --- | --- | --- | --- | --- | --- |
| CC(C(=O)N1CCC1)c1c[nH]c2cc(F)ccc12 (stereo not drawn) [Compound 10066, 1-(azetidin-1-yl)-2-(6-fluoro-1H-indol-3-yl) propan-1-one] | 2.94 | 21.34 | 3.51 to 4 mM | More active | 2.22 | 9.14 |  |  |  |  |
| COC(=O)c1cc(NC(=O)Cc2c[nH]c3cc(F)ccc23)cc(OC)c1 [Compound 10060] |  |  |  |  |  |  | low or no binding | Not soluble |  |  |
| O=C(Cc1c[nH]c2ncc(F)cc12)N1CCC1 [Compound 10035, 1-(azetidin-1-yl)-2-(5-fluoro-1H-pyrrolo[2,3-b]pyridin-3-yl)ethan-1-one] | 0.91 | −0.11 | > 10 mM | More active |  |  |  |  |  |  |
| CC(CCO)NC(=O)Cc1c[nH]c2cc(F)ccc12 (stereo not drawn) [Compound 10026] | 1.23 | 3.17 | 10 mM |  |  |  | low or no binding |  |  |  |
| CS(=O)(=O)NCCc1c[nH]c2cc(F)ccc12 [Compound 10006, reference compound] | 3.24 | 19.5 | 10 mM |  |  |  |  |  |  |  |
| COc1ccc(NC(=O)Cc2c[nH]c3cc(F)ccc23)cc1C [Compound 10057] |  |  |  |  |  |  | low or no binding | Not soluble |  |  |
| CN(C)C[C@@H]1CN(C(=O)Cc2c[nH]c3cc(F)ccc23)CCO1 [Compound 10159] | 3.93 | 19.26 | 2.95 to 3.43 mM | More active |  |  |  |  |  |  |
| CN(C)C[C@H]1CN(C(=O)Cc2c[nH]c3cc(F)ccc23)CCO1 [Compound 10160, (S)-1-(2-((dimethylamino)methyl)morpholino)-2-(6-fluoro-1H-indol-3-yl) ethan-1-one] | 6.24 |  | 1.28 mM |  |  |  |  |  |  |  |
| NC(=O)C1CN(C(=O)Cc2c[nH]c3cc(F)ccc23)C1 [Compound 10114, 1-(2-(6-fluoro-1H-indol-3-yl)acetyl)azetidine-3-carboxamide] | 2.14 | 15.2 | 11.1 mM |  |  |  |  |  |  |  |
| CC(=O)Nc1cccc(NC(=O)Cc2c[nH]c3cc(F)ccc23)c1 [Compound 10014] | 3.12 | 38.3 | 2.32 mM | More active | 2.46 | >LOQ |  |  |  |  |
| COCCNC(=O)Cc1c[nH]c2cc(F)ccc12 [Compound 10025] | 1.22 | 1.68 | 6 mM |  |  |  | low or no binding |  |  |  |
| O=C(Cc1c[nH]c2cc(F)ccc12)NC1CCOCC1 [Compound 10027] | 1.42 | 3.77 | 7.4 mM |  |  |  | low or no binding |  |  |  |
| CCOC(=O)Cc1c[nH]c2cc(F)ccc12 [Compound 11003, ethyl 2-(6-fluoro-1H-indol-3-yl) acetate] | 2.23 | 11.18 |  |  | 2.20 | 14.19 |  |  |  |  |
| CN(C)S(=O)(=O)NCCc1c[nH]c2cc(F)ccc12 [Compound 10004, reference compound] |  | 19.49 | 6.16 to 6.4 mM |  | 2.06 | 9.41 |  |  | 5.34 @ 50 uM |  |
| O=C(Cc1c[nH]c2cc(F)ccc12)Nc1ccccc1 [Compound 10021, 2-(6-fluoro-1H-indol-3-yl)-N-phenyl acetamide] |  | 38.83 |  |  | 2.62 | >LOQ |  |  | 8.73 @ 50 uM |  |
| O=C1CCN(C(=O)Cc2c[nH]c3cc(F)ccc23)CC1 [Compound 10106] | 2.25 | 13.41 |  |  |  |  |  |  |  | 6.43 mM |
| O=C(Cc1c[nH]c2cc(F)ccc12)N1CCCCC1 [Compound 10053] | 5.85 | 39.43 | 1.53 mM | More active | 4.89 | >LOQ |  |  |  |  |
| CC(=O)N[C@H]1CCN(C(=O)Cc2c[nH]c3cc(F)ccc23)C1 [Compound 10041] | 1.86 | 3.92 | 5.2 to 9 mM |  |  |  |  |  |  |  |
